Five molecules from paper PMC2737470 (Circulation research, 2009) can be followed below.

Assay [1] deals with carboxyl terminal domain of Cx43 (Cx43CT), recombinant. The assay is described as follows: SPR. (In SPR one partner is held on a chip, and binding of the other changes the refractive index at the surface.)
The subject of assay [2] is N2a cell pairs expressing Cx43. Put plainly: Patch clamp, octanol-induced uncoupling of Cx43 channels. Format: cell-based. (In general: The patch-clamp technique gives a direct electrical read-out from membranes.)
Assay [3] has as its system carboxyl terminal domain of Cx43 (Cx43CT). The assay is described as follows: Surface plasmon resonance, peptide binding to immobilised Cx43CT. As to conditions: molecular weight-normalized responses, same sensor chip.
Assay [4] deals with N2a cells expressing Cx40. The assay is described as follows: Patch clamp, octanol-induced uncoupling of Cx40 channels. As to conditions: N2a cells expressing Cx40, peptide in pipette. The format is cell-based.
The subject of a further assay is recombinant Cx40CT. The assay is described as follows: Surface plasmon resonance with recombinant Cx40CT. The format is binding. As to conditions: Online Figure IV.
In the next assay the test system is recombinant Cx43CT. Put plainly: NMR 15N-HSQC of Cx43CT titrated with peptide. The format is binding. The conditions noted are these: Cx43CT titrated with peptide to 1:500 and 1:900 molar ratio.

Consider “CyRP-71 (cyclo-RRPPYRQ as printed in Table 1) (peptide)”, for which the SPR response amplitude normalized by molecular weight in assay [1] was found to be 33.9 a.u.
Take Cyclo-RRPPYQ (head to tail) [CyRP-62]: in assay [2] (peptide 100 μM in patch pipette), the “cells remaining coupled after ten minutes of octanol superfusion” value is on record as 100%.
For the molecule Cyclo-RRPPYRQ (head to tail) [CyRP-71], the “SPR response relative to CyRP-62 (times higher)” value in assay [3] is listed as 9 times. The “effect on time course of octanol-induced uncoupling in Cx40 (in words)” value in assay [4] is on record as “did not modify the time course”. The “SPR response with Cx40CT (in words)” value in the assay on recombinant Cx40CT is “only a minor SPR deflection”. Moreover, the “interaction with Cx43CT by 15N-HSQC resonance shifts (in words)” value with recombinant Cx43CT is given as “confirm the binding of Cx43CT to CyRP-71”.
For RRNYRRNY, the “cell pairs in which the peptide failed to prevent uncoupling” value in assay [2] (octanol-induced uncoupling, peptide in pipette) was “approximately 40%”. Further, the “cell pairs remaining coupled at the end of octanol exposure (number of pairs)” value in assay [2] (peptide in patch pipette (100 μM), 10 minutes of octanol) was “four of the six”.
On to RRPPYQ (backbone-cyclized (cyclo-, Q6 joined to R1)) [CyRP-62 (cyclo-RRPPYQ)], for which, in assay [1], the SPR response amplitude normalized by molecular weight (125 μM) is 3.71 a.u.
